According to ChEMBL document CHEMBL3301361, “Experimental in vitro DMPK and physicochemical data on a set of publicly disclosed compounds”:
≈ marks a conversion by molar mass, not a printed value.

Key:
physchem [1] = experiment: physchem
physchem [2] = experiment: physchem; remark: listed apart in the source
in vitro [3] = conditions: SD, HW or BN, rat, plasma
in vitro [4] = conditions: Dunkin Hartley, guinea pig, plasma
in vitro [5] = conditions: mouse, plasma
in vitro [6] = conditions: Beagle, dog, plasma
in vitro [7] = conditions: human, hepatocytes
in vitro [8] = conditions: human, plasma
physchem [9] = experiment: physchem; remark: listed apart in the source
physchem [10] = conditions: octan-1-ol/water, pH 7.4, LogD7.4
in vitro [11] = conditions: human
in vitro [12] = conditions: hepatocytes
physchem [13] = conditions: pH 7.4 buffer

Compound	pKa (physchem [1])	pKa (physchem [2])	fraction unbound at 5 h (in vitro [3])	fraction unbound at 5 h (in vitro [4])	fraction unbound at 5 h (in vitro [5])	fraction unbound at 5 h (in vitro [6])	fraction unbound at 5 h (in vitro [8]; PPB)	logD (physchem [10])	further results
N=C(N)SCCc1cccc(CCSC(=N)N)c1	9.1	11	–	–	–	–	–	–	–
NC(=O)[C@@H](CCC(F)(F)F)N(Cc1ccc(-c2ncon2)cc1F)S(=O)(=O)c1ccc(Cl)cc1	–	–	0.0119	0.0081	0.0149	–	–	–	–
Cc1nn(-c2ccccc2)c(N)c1-c1ccccc1	–	–	0.0457	0.0328	–	0.0313	–	–	hepatocyte CLint (in vitro [7]): 32.4 µL/min/1e6 cells; fraction unbound at 5 h (in vitro [8]): 0.013
C#CCn1c(=O)c2c(-c3cncn3C)n(Cc3ccnc4ccc(Cl)cc34)nc2n(CC2CC2)c1=O	4.44	–	–	–	–	–	–	–	–
COc1ccc(CC(=O)NCc2ccccc2-c2ccccc2C(=O)NCCc2cccnc2)cc1	–	–	0.0836	0.17	0.0872	0.0705	0.0066	–	–
CCS(=O)(=O)c1ccc(-c2cc(C(F)(F)F)ccc2OCC(=O)O)c(C)c1	–	–	0.0705	0.0928	0.208	0.03	0.0428	-0.45	pKa (physchem [9]): 3.2
N#Cc1cc(F)c(Cl)cc1O[C@H](CCN)c1ccccc1	–	9.6	–	0.101	–	0.0457	0.289	0.77	microsomal CLint (in vitro [11]; liver microsomes): < 3 µL/min/mg
Cc1nn(-c2ccc(F)cc2)c(NS(=O)(=O)c2ccc(C(F)(F)F)cc2)c1C(=O)N[C@@H](C)C(C)(C)C	–	–	0.0293	0.0736	–	–	0.0136	2.35	pKa (physchem [9]): 3.4; hepatocyte CLint (in vitro [12]): 5.01 µL/min/1e6 cells; microsomal CLint (in vitro [11]; microsomes): 10 µL/min/mg
Cc1ccc(S(=O)(=O)Nc2c(C(=O)N[C@@H](C)C(C)(C)C)c(C)nn2C(C)C)cc1	–	–	0.0418	0.271	–	0.0736	0.0457	–	pKa (physchem [9]): 4.5; hepatocyte CLint (in vitro [12]): 10 µL/min/1e6 cells; hepatocyte CLint (in vitro [7]): < 3 µL/min/1e6 cells
O=C([C@H]1CCCCN1)N1CCN(c2nc(NCc3ccc(Cl)cc3Cl)c3cccnc3n2)CC1	5.7	9	–	–	–	–	–	2.27	hepatocyte CLint (in vitro [12]): 9.88 µL/min/1e6 cells; microsomal CLint (in vitro [11]; liver microsomes): 24 µL/min/mg
c1ccc([C@H]([C@@H](c2ccccc2)N2CCCCC2)N2CCCCC2)cc1	–	–	0.365	0.5	0.253	0.163	0.0606	–	hepatocyte CLint (in vitro [12]): 12 µL/min/1e6 cells; microsomal CLint (in vitro [11]; liver microsomes): 13.8 µL/min/mg
c1ccc([C@@H]([C@H](c2ccccc2)N2CCCC2)N2CCCC2)cc1	–	–	0.329	0.489	0.339	–	0.17	–	–
c1ccc([C@H]([C@@H](c2ccccc2)N2CCCC2)N2CCCC2)cc1	–	–	0.339	0.489	0.271	–	0.17	–	–
CC#Cc1cncc(-c2ccc3c(c2)C2(N=C(C)C(N)=N2)[C@]2(CC[C@H](OC)CC2)C3)c1 (stereo not given in full)	–	–	–	0.072	0.0041	–	0.0801	–	–
Cc1ccccc1C[C@@H](C(=O)O)N1CCC(CN2CCC(Oc3ccc(Cl)c(Cl)c3)CC2)CC1	7.55	9.2	–	–	–	–	–	–	solubility thermodynamic (physchem [13]): 12.3 µM (≈ 6.22 µg/mL); microsomal CLint (in vitro [11]; liver microsomes): < 3 µL/min/mg
O=C(O)C(c1ccccc1)N1CCC(N2CCC(Oc3ccc(Cl)c(Cl)c3)CC2)CC1 (stereo not given)	6.5	9.1	–	–	–	–	–	2.23	microsomal CLint (in vitro [11]; liver microsomes): 6 µL/min/mg
O=C(O)[C@@H](Cc1ccccc1)N1CCC(CN2CCC(Oc3ccc(Cl)c(Cl)c3)CC2)CC1	7	9.3	–	–	–	–	0.314	–	microsomal CLint (in vitro [11]; liver microsomes): < 3 µL/min/mg
N#Cc1ccc2ccc(=O)n(CCN3CC[C@@H](NCc4ccc5c(n4)NC(=O)CO5)[C@@H](F)C3)c2c1	–	–	0.285	0.715	0.465	0.591	0.204	0.66	hepatocyte CLint (in vitro [12]): 16.6 µL/min/1e6 cells

Compound	pKa (physchem [1])	pKa (physchem [2])	fraction unbound at 5 h (in vitro [3])	fraction unbound at 5 h (in vitro [4])	fraction unbound at 5 h (in vitro [5])	fraction unbound at 5 h (in vitro [6])	fraction unbound at 5 h (in vitro [8]; PPB)	logD (physchem [10])	further results
CC1=NC(c2cccc(-c3cncc(Cl)c3)c2)(C2CC2)N=C1N (stereo not given)	2.28	6.04	–	–	–	–	–	–	–
CCCN(c1cccnc1)P(=O)(c1ccccc1)c1ccccc1	–	–	0.151	0.309	0.124	0.176	–	–	fraction unbound at 5 h (in vitro [8]): 0.0205
O=P(c1ccccc1)(c1ccccc1)N(Cc1ccccn1)c1cccnc1	–	–	0.145	0.299	0.17	0.208	–	–	fraction unbound at 5 h (in vitro [8]): 0.0234
O=P(c1ccccc1)(c1ccccc1)N(Cc1ccccn1)Cc1ccccn1	–	–	–	0.569	0.0968	–	–	–	fraction unbound at 5 h (in vitro [8]): 0.0049
O=C(NCC12CC3CC(CC(C3)C1)C2)c1cc(CN2CC3CNCC(C2)O3)ccc1Cl	9	10	–	–	–	–	0.0467	1.55	hepatocyte CLint (in vitro [12]): 9 µL/min/1e6 cells; microsomal CLint (in vitro [11]; microsomes): 15 µL/min/mg
Cc1nc2ccc(Oc3ccc(F)cc3)cc2c(=O)n1C[C@H]1CCCN(C(C)C)C1	2.65	–	–	–	–	–	–	2.4	–
COc1ccc2c(C)cc(N[C@H]3CC[C@H](NCc4cn(C)c5cccnc45)C3)nc2c1	–	–	–	0.0854	0.0647	–	0.0262	–	–
COc1ccnc(CSc2nc3ccccc3[nH]2)c1	3	5.3	–	–	–	–	–	2.89	hepatocyte CLint (in vitro [12]): > 150 µL/min/1e6 cells; microsomal CLint (in vitro [11]; liver microsomes): 86 µL/min/mg
COc1ccc(CCN2CCC(Nc3nc4ccccc4n3Cc3ccc(F)cc3)CC2)cc1 [ASTEMIZOLE]	6.33	9.62	–	–	–	–	0.0262	–	solubility thermodynamic (physchem [13]): 5.6 µM (≈ 2.57 µg/mL); microsomal CLint (in vitro [11]; liver microsomes): 66 µL/min/mg
O=C1CC2(CCCC2)CC(=O)N1CCCCN1CCN(c2ncccn2)CC1 [BUSPIRONE]	5.48	7.61	–	–	–	–	–	–	solubility thermodynamic (physchem [13]): 1450 µM (≈ 557 µg/mL); hepatocyte CLint (in vitro [7]): 38.9 µL/min/1e6 cells; microsomal CLint (in vitro [11]; liver microsomes): 116 µL/min/mg
NC(=O)N1c2ccccc2C=Cc2ccccc21 [CARBAMAZEPINE]	–	–	0.266	0.24	–	0.271	0.294	1.65	solubility thermodynamic (physchem [13]): 776 µM (≈ 183 µg/mL); hepatocyte CLint (in vitro [12]): 19.9 µL/min/1e6 cells; hepatocyte CLint (in vitro [7]): 5.25 µL/min/1e6 cells; microsomal CLint (in vitro [11]; microsomes): 7 µL/min/mg
CN(C)CCC(c1ccc(Cl)cc1)c1ccccn1 (stereo not given) [CHLORPHENIRAMINE]	5.86	–	–	–	–	–	–	–	–
OC(Cn1cncn1)(Cn1cncn1)c1ccc(F)cc1F [FLUCONAZOLE]	2.18	2.72	–	–	–	–	–	–	fraction unbound at 5 h (in vitro [8]): 0.858
C[C@H](CN(C(=O)c1ccc(C#N)cc1)c1ccccn1)N1CCN(c2cccc3c2OCCO3)CC1 [LECOZOTAN]	–	–	0.179	0.139	0.139	–	0.009	–	–
Cc1nnc(C(C)C)n1[C@H]1C[C@H]2CC[C@@H](C1)N2CC[C@H](NC(=O)C1CCC(F)(F)CC1)c1ccccc1 [MARAVIROC]	2.4	9.66	–	–	–	–	–	–	–
CC(C)N1CCN(Cc2cnc(-c3cc(-c4cccc5[nH]ccc45)cc4[nH]ncc34)o2)CC1 [NEMIRALISIB]	2.4	8.26	0.0358	–	–	–	0.03	3.49	–
COc1ccc(CCO[C@@H]2CCCC[C@H]2N2CC[C@@H](O)C2)cc1OC [VERNAKALANT]	–	–	0.776	0.309	–	0.772	0.629	–	hepatocyte CLint (in vitro [7]): 6.46 µL/min/1e6 cells
